Source: paper PMC10449633 (Nature Chemical Biology, 2023)
Numbered stars: 1 amine (or outer) side, 2 acyl side, 3 side chain; on linkers, the order of the positions; unused ones are H or OH. Square brackets hold non-standard residues; d marks the D form. Peptide text beside a SMILES is read from it. ξ: configuration not given here. X1 = CN(C(Cc1cn(Cc2ccc(Br)cc2)c2ccccc12)C(=O)[*:2])[*:1]; ξAla(CF3) = NC(CC(F)(F)F)C(=O)O; X2 = N#CCCC(O[*:1])C(=O)[*:2]; NMeL = CN[CH](CC(C)C)C(=O)O; NMeA = CN[CH](C)C(=O)O

Legend:
Sec61 [1] = target: T1, Sec61 (Homo sapiens, UniProt P61619); assay: signal peptide-GLuc (SP-GLuc) reporter panel, 89 constructs; format: cell-based; conditions: read-out: log10(IC50 8445) (converted)
T1 construct: endogenous in cells
Excerpt: The heat map depicts IC50 values calculated from each SP-GLuc dose–response curve. d, Arthritis was induced in BALB/c mice with antibodies specific for type II collagen (mAb) on day 0 and endotoxin on day 3. On day 4, when the disease was present in all animals, mice were randomized and treated for 2 weeks with thrice weekly (QODx3) or weekly (QW) intravenous administration of vehicle or KZR-8445 or intraperitoneal administration of dexamethasone. Clinical scores (0–4 per paw; n = 10 per group) and body weights were followed until day 14. Data are presented as mean values ± s.d. mAb, monoclonal antibody. Source data
To investigate the effects of KZR-8445 on secretory and membrane protein biogenesis and to establish Sec61α as the relevant target, we quantified the secretion of a doxycycline-inducible Gaussia luciferase (GLuc) reporter fused to the C-terminus of two full-length pro-inflammatory cytokines, interleukin-2 (IL-2) (which contains a cleavable signal peptide) and tumor necrosis factor-alpha (TNFα) (which contains an N-terminal transmembrane anchor). […] KZR-8445 is structurally related to CT8, which discriminates among Sec61 clients based largely on their N-terminal signal peptide. […] We also directly compared KZR-8445 to mycolactone A/B, a structurally distinct and relatively client-nonselective Sec61 inhibitor[8],[25], for their ability to discriminate between vascular cell adhesion molecule (VCAM) and preprolactin (pPL) signal peptides.
Target sequence in this assay (P61619 whole entry): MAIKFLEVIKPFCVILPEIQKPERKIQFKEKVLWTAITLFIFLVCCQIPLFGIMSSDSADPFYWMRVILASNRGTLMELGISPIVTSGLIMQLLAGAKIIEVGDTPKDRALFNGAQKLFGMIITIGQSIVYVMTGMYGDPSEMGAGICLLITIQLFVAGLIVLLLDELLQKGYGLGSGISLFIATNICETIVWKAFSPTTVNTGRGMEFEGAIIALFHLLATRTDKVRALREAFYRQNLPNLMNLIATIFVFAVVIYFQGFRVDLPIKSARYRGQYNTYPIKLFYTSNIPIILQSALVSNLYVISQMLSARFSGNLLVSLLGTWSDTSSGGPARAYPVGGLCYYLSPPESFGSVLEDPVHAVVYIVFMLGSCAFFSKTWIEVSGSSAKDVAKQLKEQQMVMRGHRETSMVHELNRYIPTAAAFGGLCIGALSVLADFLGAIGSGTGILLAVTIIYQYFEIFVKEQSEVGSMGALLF
Target sequence in this assay (P60059 whole entry, further chain): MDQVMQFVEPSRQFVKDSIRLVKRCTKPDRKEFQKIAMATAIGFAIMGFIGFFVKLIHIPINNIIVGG
Target sequence in this assay (P60468 whole entry, further chain): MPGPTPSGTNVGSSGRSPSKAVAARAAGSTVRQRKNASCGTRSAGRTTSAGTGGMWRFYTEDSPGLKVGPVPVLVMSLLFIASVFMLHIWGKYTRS

Sec61 [2] = target: T1, Sec61; assay: cell-based; conditions: 24 h, range in brackets
Target sequence in this assay (P60059 whole entry): as the sequence (P60059 whole entry, further chain) above
Target sequence in this assay (P61619 whole entry): as the sequence (P61619 whole entry) above
Target sequence in this assay (P60468 whole entry, further chain): as the sequence (P60468 whole entry, further chain) above

`CC(C)CC1NC(=O)C(Cc2cn(Cc3ccc(Br)cc3)c3ccccc23)N(C)C(=O)C(CC(F)(F)F)NC(=O)C(CC(C)C)N(C)C(=O)C(CC(F)(F)F)NC(=O)C(CCC#N)OC(=O)C(C)N(C)C1=O` (stereo not drawn) [KZR-8445] (cyclo([X1]L[NMeA][X2][ξAla(CF3)][NMeL][ξAla(CF3)]); configuration not given here) was tested, and the IC50 (Sec61 [1]; IL11 SP-GLuc) was 183 nM, the IC50 (Sec61 [1]; IL12B SP-GLuc) was 109 nM and the IC50 (Sec61 [1]; IL12RB1 SP-GLuc) was 64.4 nM. For the same molecule, the IC50 (Sec61 [1]; IL13 SP-GLuc) was 59.1 nM, the IC50 (Sec61 [1]; IL15RA SP-GLuc) was 294 nM and the IC50 (Sec61 [1]; IL15 SP-GLuc) was 116 nM. For the same molecule, the IC50 (Sec61 [1]; IL17A SP-GLuc) was 318 nM, the IC50 (Sec61 [1]; IL17F SP-GLuc) was 228 nM and the IC50 (Sec61 [1]; IL17RA SP-GLuc) was 408 nM. The IC50 (Sec61 [1]; IL23A SP-GLuc) was 425 nM, the IC50 (Sec61 [1]; IL23R SP-GLuc) was 366 nM and the IC50 (Sec61 [1]; ITGA3 SP-GLuc) was 18300 nM. It also gave an IC50 (Sec61 [1]; ITGB1 SP-GLuc) of over 25000 nM, an IC50 (Sec61 [1]; ITGB3 SP-GLuc) of 106 nM and an IC50 (Sec61 [1]; ITGB5 SP-GLuc) of 89.1 nM. For the same molecule, the IC50 (Sec61 [1]; ITGB7 SP-GLuc) was 228 nM, the IC50 (Sec61 [1]; JTB SP-GLuc) was 25.5 nM and the IC50 (Sec61 [1]; KRTDAP SP-GLuc) was 570 nM. It also gave an IC50 (Sec61 [1]; LCN6 SP-GLuc) of 101 nM, an IC50 (Sec61 [1]; LDLR SP-GLuc) of 800 nM and an IC50 (Sec61 [1]; LILRB2 SP-GLuc) of 1730 nM. It also gave an IC50 (Sec61 [1]; LRP8 SP-GLuc) of 681 nM, an IC50 (Sec61 [1]; LRRC32 SP-GLuc) of over 25000 nM and an IC50 (Sec61 [1]; MASP2 SP-GLuc) of 127 nM. It also gave an IC50 (Sec61 [1]; METTL7a SP-GLuc) of 6900 nM, an IC50 (Sec61 [1]; NGF SP-GLuc) of 347 nM and an IC50 (Sec61 [1]; P3H1 SP-GLuc) of 72.7 nM. It also gave an IC50 (Sec61 [1]; PCDHA4 SP-GLuc) of 489 nM, an IC50 (Sec61 [1]; PCSK9 SP-GLuc) of 1280 nM and an IC50 (Sec61 [1]; PDCD1 SP-GLuc) of 37 nM. It also gave an IC50 (Sec61 [1]; PRKCSH SP-GLuc) of 186 nM, an IC50 (Sec61 [1]; PSG8 SP-GLuc) of 292 nM and an IC50 (Sec61 [1]; SIRPA SP-GLuc) of 2030 nM. It also gave an IC50 (Sec61 [1]; SSR2 SP-GLuc) of 137 nM, an IC50 (Sec61 [1]; STAB1 SP-GLuc) of 670 nM and an IC50 (Sec61 [1]; SUCO SP-GLuc) of 1450 nM. For the same molecule, the IC50 (Sec61 [1]; TGFB1 SP-GLuc) was 2210 nM, the IC50 (Sec61 [1]; TGFB2 SP-GLuc) was 187 nM and the IC50 (Sec61 [1]; TGFB3 SP-GLuc) was over 25000 nM. It also gave an IC50 (Sec61 [1]; TGFBR1 SP-GLuc) of 134 nM, an IC50 (Sec61 [1]; TIGIT SP-GLuc) of 590 nM and an IC50 (Sec61 [1]; TMED10 SP-GLuc) of 462 nM. It also gave an IC50 (Sec61 [1]; UCN SP-GLuc) of 5900 nM, an IC50 (Sec61 [2]; HER3 signal peptide-GLuc, read-out: IC50 (nM) HER3) of 72 nM and an IC50 (Sec61 [2]; PD1 signal peptide-GLuc, read-out: IC50 (nM) PD1) of 32 nM. The IC50 (Sec61 [2]; full-length IL-2-GLuc, read-out: IC50 (nM) IL-2) was 84 nM, the IC50 (Sec61 [2]; full-length TNFα-GLuc, read-out: IC50 (nM) TNFα) was 40 nM and the IC50 (Sec61 [2]; prolactin signal peptide-GLuc, read-out: IC50 (nM) Prolactin) was 1070 nM.
